{"source": "paper PMC9510126", "about": "“Hydrophobicity is a key determinant in the activity of arginine-rich cell penetrating peptides” (Scientific Reports, 2022)", "key": {"[1]": {"experiment": "RP-18 TLC hydrophobicity (1-Rf) of Ac-X-NH2 analogs", "type": "physicochemical", "details": "RP18 TLC, 40% acetonitrile / 60% PBS (10 mM phosphate buffer), pH 4 vs pH 8", "experimental": "(§1) In order to assess the hydrophobicity contributed by each X group, the peptides were first analyzed by reverse phase HPLC using a C18 column, using gradients of buffer A (water/TFA 99.9:0.1) and buffer B (acetonitrile/water/TFA 89.9:10:0.1 v:v:v) (gradient of 0–40% B over 20 min). […] All d(X)TAT peptides eluted over a range of 10–35% acetonitrile. […] One caveat of this approach is that the buffer system used for peptide analysis is pH 2 (due to the presence of TFA, required to protonate residue side chains). However, pH 2 is not representative of the pH that CPPs may be exposed to when in contact with cells, either pH 7.2 outside the plasma membrane, or pH between 6.5 and 4.5 while inside acidic endosomes. In order to establish the relative hydrophobicities of d(X)TAT peptides at these pHs, we sought to use other techniques, including thin layer chromatography using C18, aluminum oxide or silica stationary phases. Unfortunately, the arginine-rich peptides could not be separated on these systems. To solve this problem, each individual X group was synthesized, using acetylated and amidated N and C-terminal positions to mimic the peptide backbone found in the d(X)TAT constructs (Fig. 1A, Figure S11). Each Ac-X-NH2 group was analyzed by HPLC and by RP18 TLC, using 40% acetonitrile and 60% PBS as mobile phase. The HPLC elutions of Ac-X-NH2 correlated with the HPLC elutions of their respective d(X)TAT counterparts (Fig. 1C). Similarly, the relative hydrophobicities of Ac-X-NH2 determined by TLC (measured as 1-Rf) at pH 4 or 8 were in good agreement with the results obtained by HPLC (Fig. 1D). […] In the case of DEAC, the protonation state of the fluorophore has, to our knowledge, not been characterized.\nHydrophobic substituents (10 µL) were developed on aluminum-backed F254 RP-18 TLC plates (EMD Millipore). Plates were cut into 6 cm × 6 cm squares and developed in 40% acetonitrile/60% 10 mM phosphate buffer first along one axis at pH 2.0, then along the second axis at pH 7.4. Peptide substituents that could not be easily identified under long-wave UV light were stained with iodine for 10–20 min. Retention factors (Rf) were calculated based on the distance traveled by each compound between the starting spotted location and the final solvent front location."}, "[2]": {"design": "method as in PMID 24227203", "details": "cited from earlier work"}, "live cells": {"system": "live cells", "details": "cited from earlier work", "experimental": "Several strategies have been pursued to improve the delivery properties of CPPs like TAT. They include addition of endosomolytic peptide sequences, addition of hydrophobic residues and cyclization. We and others have shown that reagents which combine multiple copies of the TAT peptide, or TAT-like analogs, are also more efficient at entering cells than their monomeric TAT counterpart. […] In particular, protein payloads co-incubated with dfTAT reach the cytosol of cells by escaping late endosomes specifical ..."}, "[3]": {"experiment": "C18 reverse phase HPLC hydrophobicity of (X)TAT and d(X)TAT peptides", "type": "physicochemical", "details": "chromatographic, C18, 0–40% B over 20 min", "experimental": "as §1\nAll rpHPLC retention times were analyzed using an Agilent HP 1200 series instrument on an analytical Phenomenex Luna Omega Polar C18 column (5 μm, 4.6 mm × 250 mm). The flow rate was 2 mL/min, and detection was at 214 nm. A binary solvent system was used comprising 99.9% H2O/0.1% TFA (solvent A) and 90% Acetonitrile/9.9% H2O/0.1% TFA (solvent B). […]"}, "MDA-MB-231 cells": {"system": "MDA-MB-231 cells", "experiment": "Delivery of TMR-k5 probe into live cells (nuclear staining)", "type": "cell-based, human", "details": "MDA-MB-231, TMR-k5 20 μM, 1 h, biological triplicates", "description": "To test the relative delivery efficiency of the d(X)TAT peptides, the cell lines MDA-MB-231 (epithelial-like, human breast cancer, spindle-shaped) and Neuro-2a (mouse neuroblastoma with neuronal and amoeboid stem cell morphology) were chosen. These cell lines are routinely used in cancer research, neuroscience, and toxicology. In the context of this study, we rationalized that the distinct differences in origin and characteristics between MDA-MB-231 and Neuro-2a properties may be useful to assess the generality of the results obtained. MDA-MB-231 or Neuro-2a cells were incubated with d(X)TAT peptides at various concentrations and TMR-k5 (20 μM) for 1 h. Cells were then washed, incubated with the DNA stain Hoechst and the live/dead marker SYTOX green (or SYTOX blue), and imaged by fluorescence microscopy. The localization of TMR-k5 in individual nuclei was then assessed by measuring the overlap between TMR and Hoechst signals (Fig. 2, Figure S13). […] This is because, in our experience, dfTAT and dfTAT analogs display a threshold behavior where, below a certain endosomal concentration, endosomal leakage is not achieved. In contrast above this threshold most late endosomes are permeabilized. […] Our rationale was therefore to titrate cells with different concentrations of d(X)TAT agents, monitor how many cells display cytosolic/nuclear delivery of TMR-k5, and compare the different d(X)TAT peptides.\nMDA-MB-231 and Neuro2a cells obtained from ATCC (breast cancer-derived epithelial) were cultured in humidified atmosphere at 5% CO2 and 37 °C. Cells were seeded in plastic 48-well plates (Fisher) for quantitative analysis or 8-well Labtek II plates (Fisher) for qualitative imaging at 100× magnification. The cells were grown to 80–90% confluency in a 37 °C humidified atmosphere containing 5% CO2. Cells were washed three times with Leibovitz’s L15 media (L15) (Fisher). Cells were then incubated with peptide and 20 µM of the TMR-k5 pentalysine probe at 37 °C for 1 h. This was followed by washing the cells three times with L15 supplemented with heparin (Sigma-Aldrich) (1 mg/mL) and an extra L15 wash. […] Additionally, the cell permeable dye Hoechst 33342 (Thermo Fisher Scientific o) was used for nuclear staining. Cells were imaged using an EVOS FL Auto 2 inverted microscope (Thermo Fisher Scientific). The microscope is equipped with a heating chamber maintained at 37 °C. Images were acquired using bright field imaging and five fluorescence filter sets: CFP (Ex = 436 ± 10 nm, Em = 480 ± 20 nm), RFP (Ex = 560 ± 20 nm, Em = 630 ± 35 nm), FITC (Ex = 488 ± 10 nm Em = 520 ± 20 nm), DAPI (Ex = 350 ± 50 nm, Em = 460 ± 25 nm), […]. For image viewing and processing individual images, the Celleste 4.0 software (Thermo Fisher Scientific) was used. Nuclear regions in 20× images where identified using Hoechst staining (the quantification process is described in Figure S13). The intensity of these objects in the TMR channel was then determined using the Celleste software. Cells stained by the SYTOX or DRAQ dyes were considered dead and not counted as positive for delivery. Cells displaying a nuclear TMR-k5 fluorescence above the fluorescence threshold determined for TMR-k5 alone were considered positive for delivery (if excluding SYTOX or DRAQ7 stain, and if visually showing stained nucleoli for confirmation of intracellular localization). The percentage of cells positive for TMR-k5 nuclear staining was then calculated, using Hoechst-stained cells to count the total number of cells present. […] Instead, this assay quantifies the number of cells in which the nuclear fluorescence of TMR-k5 is above a detection threshold. This threshold is dependent on the microscope, imaging conditions, and the concentration of TMR-k5 used during incubation (Figure S13). The reproducibility of all the experiments was assessed by performing experiments with independent batches of cell cultures on three different days (i.e., biological triplicates). […]"}}, "note": "Ends that are not written are not given here. * marks the point of attachment. RhodamineB = CCN(CC)c1ccc2c(-c3ccccc3C(=O)*)c3ccc(=[N+](CC)CC)cc-3oc2c1"}
{"compound": "CC(=O)N[C@@H](Cc1ccccc1)C(N)=O", "note": "[Ac-F-NH2]", "values": [{"measurement": "pH dependence of TLC retention (1-Rf)", "setting": "[1]", "value": "independent of pH"}]}
{"compound": "CCN(CC)c1ccc2cc(C(=O)NCCCCC(NC(C)=O)C(N)=O)c(=O)oc2c1", "note": "(stereo not shown) [Ac-K(DEAC)-NH2]", "values": [{"measurement": "pH dependence of TLC retention (1-Rf)", "setting": "[1]", "value": "higher hydrophobicity at pH 4 than at pH 8"}]}
{"compound": "CC(=O)N[C@@H](Cc1c[nH]c2ccccc12)C(N)=O", "note": "[Ac-W-NH2]", "values": [{"measurement": "pH dependence of TLC retention (1-Rf)", "setting": "[1]", "value": "independent of pH"}]}
{"compound": "CC(=O)N[C@@H](Cc1ccc(O)cc1)C(N)=O", "note": "[Ac-Y-NH2]", "values": [{"measurement": "pH dependence of TLC retention (1-Rf)", "setting": "[1]", "value": "independent of pH"}]}
{"compound": "O=C1OC2(c3ccc(O)cc3Oc3cc(O)ccc32)c2ccccc21", "note": "[fluorescein]", "values": [{"measurement": "pKa (dianionic/monoanionic forms)", "setting": "[2]", "value": 6.4}, {"measurement": "pKa (monoanionic/neutral forms)", "setting": "[2]", "value": 4.3}, {"measurement": "pKa (neutral/cationic forms)", "setting": "[2]", "value": 2.1}]}
{"compound": "(CK(TMR)RKKRRQRRR)2 (disulfide) [dfTAT, dimer of TAT linked by a cystine disulfide bridge, labeled with two tetramethylrhodamine fluorophores]", "values": [{"measurement": "endosomal escape", "setting": "live cells", "value": "high levels of endosomal escape"}, {"measurement": "time for cell penetration and payload delivery", "setting": "live cells", "value": "less than an hour"}, {"measurement": "protein payload remaining trapped inside endosomes relative to what entered the cytosol", "setting": "live cells; protein payloads co-incubated with dfTAT", "value": "less than 10%"}]}
{"compound": "(K(RhB))TAT: monomeric peptide CXRKKRRQRRRG with X = K(RhB) (CK(RhodamineB)RKKRRQRRRG-NH2)", "values": [{"measurement": "effect of dimerization on hydrophobicity (dimer vs monomer)", "setting": "[3]; pH 2, (X)TAT vs d(X)TAT", "value": "most impacted by dimerization"}]}
{"compound": "d(K(RhB))TAT: disulfide dimer of CXRKKRRQRRRG with X = lysine conjugated to rhodamine B (CK(RhodamineB)RKKRRQRRRG-NH2; also: disulfide dimer)", "values": [{"measurement": "relative hydrophobicity of X group by C18 HPLC", "setting": "[3]; 0.1% TFA (pH 2), ranking within the d(X)TAT series", "value": "most hydrophobic"}, {"measurement": "d(X)TAT concentration at which delivery is achieved in a high percentage of cells", "setting": "MDA-MB-231 cells", "value": "< 3", "unit": "µM"}]}
